Assays:
[1] = molecular target: T1, Topoisomerase II (Topo II) (Homo sapiens, UniProt P11388); assay: In vitro Topo II inhibitory assay (TopoGEN Topo II drug screening kit); type: biochemical
T1 construct: purchased TopoGEN, Inc., Columbus
Method: The reported method described by Patra et al was applied using Topo II drug screening kit (TopoGEN, Inc., Columbus).
A typical enzyme reaction was structured to determine Topo II activity. The reaction mixture included Topo II (2 μl), substrate super coiled pHot1 DNA (0.25 μg), 50 μg/ml test compound (2 μl), and assay buffer (4 μl). To start the reaction, the mixture was allowed to incubate in 37°C for 30 min. To terminate the reaction, a mixture of 10% sodium dodecylsulphate (2 μl) and proteinase K (50 μg/mL) was added at 37°C for 15 min. then incubated for 15 min at 37°C.
(§1) After that, the DNA was run on 1% agarose gel in BioRad gel electrophoresis system for 1–2 h followed by staining with GelRedTM stain for 2 h and destained for 15 min with TAE buffer. The gel was imaged via BioRad’s Gel DocTMEZ system. Both supercoiled and linear strands DNA were incorporated in the gel as markers for DNA-Topo II intercalators. The results of IC50 values were calculated using the GraphPad Prism version 7. Each reaction was performed in duplicate, and at least three independent determinations of each IC50 were made. […]
S2.2. Measurement of topoisomerase II Activity […]
analyzed for their Topo II inhibitory activities. The reported method described by Patra et al was applied using Topo II drug screening kit (TopoGEN, Inc., Columbus).
A typical enzyme reaction was structured to determine Topo II activity. The reaction mixture included Topo II (2 µl), substrate super coiled pHot1 DNA (0.25 µg), 50 µg/ml test compound (2 µl), and assay buffer (4 µl). To start the reaction, the mixture was allowed to incubate in 37 °C for 30 min. To terminate the reaction, a mixture of 10% sodium dodecylsulphate (2 µl) and proteinase K (50 µg/mL) was added at 37 °C for 15 min. then incubated for 15 min at 37 °C.
as §1

[2] = test system: BAX; assay: Western blot, BAX level; type: cell-based, human; conditions: HCT-116, 2.44 μM, 48 h; control = 1.00
Method: In comparison to the control, compound 16 elevated the level of the proapoptotic protein (BAX) by 2.18 times. […] Furthermore, compound 16 enhanced the BAX/Bcl-2 ratio by 4.38-fold in comparison to control cells.
The effects of compound 16 on the expression of BAX, and Bcl‐2 were determined using Western blot analysis [62–64]as described in Electronic Supplementary Material S2.7 in S1 Appendix. […]
for 48 h. Then, the cells were fixed in 70% ethanol at 4 °C for 12 h. After that, the cells were washed with cold PBS, incubated with 100 μl RNase A at 37 °C for 30 min, and stained with 400 μl PI in the dark at room temperature for further 30 min. The stained cells were measured using Epics XL-MCL™ Flow Cytometer (Beckman Coulter), and the data were analyzed using Flowing software (version 2.5.1, Turku Centre for Biotechnology, Turku, Finland).
S2.6. Flow cytometry analysis for apoptosis
Flow cytometry cell apoptosis analysis was used to investigate the apoptotic effect of the synthesized compounds. […] The stained cells were measured using Epics XL-MCL™ Flow Cytometer and analyzed using Flowing software. […]
The proteins expression of BAX, and Bcl‐2 were determined using Western blot analysis. […] Total protein concentrations in the supernatant were determined colorimetrically using the Pierce 660 nm Protein Assay method (Thermo Fisher Scientific, Rockford, IL), with BSA as the standard. […]

T1 sequence (P11388 whole entry): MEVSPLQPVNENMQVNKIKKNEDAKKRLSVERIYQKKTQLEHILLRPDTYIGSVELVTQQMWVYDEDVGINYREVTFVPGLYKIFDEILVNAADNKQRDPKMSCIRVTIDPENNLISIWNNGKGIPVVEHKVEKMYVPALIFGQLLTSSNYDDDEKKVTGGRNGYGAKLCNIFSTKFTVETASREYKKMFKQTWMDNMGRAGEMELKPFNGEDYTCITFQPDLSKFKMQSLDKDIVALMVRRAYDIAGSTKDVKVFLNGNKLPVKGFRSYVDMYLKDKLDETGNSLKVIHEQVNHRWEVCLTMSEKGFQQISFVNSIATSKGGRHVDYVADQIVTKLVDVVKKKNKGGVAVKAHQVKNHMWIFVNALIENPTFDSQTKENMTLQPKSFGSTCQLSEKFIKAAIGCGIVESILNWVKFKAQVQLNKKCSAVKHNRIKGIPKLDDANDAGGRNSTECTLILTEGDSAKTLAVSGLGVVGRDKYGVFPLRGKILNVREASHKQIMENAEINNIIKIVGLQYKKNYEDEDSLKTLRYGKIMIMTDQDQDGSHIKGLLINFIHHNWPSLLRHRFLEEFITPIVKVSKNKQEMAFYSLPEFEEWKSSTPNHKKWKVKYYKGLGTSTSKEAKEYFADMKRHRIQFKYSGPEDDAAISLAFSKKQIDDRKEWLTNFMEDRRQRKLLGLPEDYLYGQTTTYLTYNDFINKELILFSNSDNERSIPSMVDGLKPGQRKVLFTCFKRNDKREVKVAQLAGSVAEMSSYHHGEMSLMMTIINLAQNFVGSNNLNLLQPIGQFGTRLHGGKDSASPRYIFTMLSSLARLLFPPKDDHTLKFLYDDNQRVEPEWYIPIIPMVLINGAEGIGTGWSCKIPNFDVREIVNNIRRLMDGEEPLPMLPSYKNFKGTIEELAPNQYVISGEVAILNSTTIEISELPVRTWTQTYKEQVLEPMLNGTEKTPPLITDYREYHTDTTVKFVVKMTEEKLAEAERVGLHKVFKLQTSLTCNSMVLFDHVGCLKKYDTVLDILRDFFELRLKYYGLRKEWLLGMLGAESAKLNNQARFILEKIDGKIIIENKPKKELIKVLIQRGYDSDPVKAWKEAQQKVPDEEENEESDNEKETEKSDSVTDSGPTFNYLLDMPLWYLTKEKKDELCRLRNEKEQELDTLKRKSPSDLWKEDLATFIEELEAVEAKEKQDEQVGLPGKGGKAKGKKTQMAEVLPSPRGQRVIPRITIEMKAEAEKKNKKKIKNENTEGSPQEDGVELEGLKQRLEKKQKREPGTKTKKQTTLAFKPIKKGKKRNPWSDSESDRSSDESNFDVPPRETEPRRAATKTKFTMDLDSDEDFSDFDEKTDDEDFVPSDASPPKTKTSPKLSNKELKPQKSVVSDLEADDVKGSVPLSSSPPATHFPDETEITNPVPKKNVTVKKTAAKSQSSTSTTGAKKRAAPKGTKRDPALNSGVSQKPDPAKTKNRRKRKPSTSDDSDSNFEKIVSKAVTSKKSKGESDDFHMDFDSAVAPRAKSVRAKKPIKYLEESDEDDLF

CCCNc1nc2ccccc2c2nnc(C(F)(F)F)n12 [Compound 16, N-Propyl-3-(trifluoromethyl)-[1,2,4]triazolo[4,3-c]quinazolin-5-amine]
IC50 [1]: 15.2 ± 0.9 µM | Protein expression (normalized to β-actin) BAX [2]: 2.18 ± 0.12
